# Test results from patent US20120101257A1, “PROCESSES FOR PREPARING AMINO-SUBSTITUTED GAMMA-LACTAMS” (UNIVERSITE DE MONTREAL, priority 2009, published 2012).
# *1 amine or outer side, *2 acyl side, *3 side chain or, on linkers, in order; H or OH if unused. Where a SMILES comes first, the peptide text is derived from it. [ ]: non-standard residue; d: D form. The star is where a group is joined. X9 = O=C1C[C@H](N[*:1])CN1[C@@H](Cc1c[nH]c2ccccc12)C(=O)[*:2]; X10 = O=C1C[C@H](N[*:1])CN1[C@H](Cc1ccccc1)C(=O)[*:2]; X5 = O=C1C[C@@H](N[*:1])CN1[C@H](Cc1ccccc1)C(=O)[*:2]; X7 = N[C@H]1CC(=O)N([C@H](Cc2c[nH]c3ccccc23)C(=O)*)C1; X3 = N[C@@H]1CCN([C@H](Cc2c[nH]c3ccccc23)C(=O)*)C1=O; X4 = N[C@H]1CCN([C@H](Cc2c[nH]c3ccccc23)C(=O)*)C1=O; X11 = N[C@@H]1CCN([C@H](Cc2ccc(O)cc2)C(=O)*)C1=O; X1 = NCCCC[C@@H](C(N)=O)N1C[C@@H](N*)CC1=O; X6 = NCCCC[C@@H](C(N)=O)N1CC[C@@H](N*)C1=O; X2 = NCCCC[C@@H](C(N)=O)N1CC[C@H](N*)C1=O; X8 = NCCCC[C@@H](C(N)=O)N1C[C@H](N*)CC1=O; d(aThr) = C[C@@H](O)[C@@H](N)C(=O)O
# Assays:
# GHS-R1a receptor = target: T1, GHS-R1a receptor (Homo sapiens, UniProt Q92847); test: GHS-R1a receptor competitive binding assay with 125I-Ghrelin; settings: for IC50: competition with 125I-Ghrelin, GHS-R1a transiently transfected in LLC-PK1 cells; for loss of GHS-R1a binding affinity, factor relative to GHRP-6: factor of decrease compared to GHRP-6
# T1 construct: expressed in transfected cells; host or cells: LLC-PK1 cells, transient calcium phosphate transfection, membrane preparation
# T1 sequence (Q92847 whole entry): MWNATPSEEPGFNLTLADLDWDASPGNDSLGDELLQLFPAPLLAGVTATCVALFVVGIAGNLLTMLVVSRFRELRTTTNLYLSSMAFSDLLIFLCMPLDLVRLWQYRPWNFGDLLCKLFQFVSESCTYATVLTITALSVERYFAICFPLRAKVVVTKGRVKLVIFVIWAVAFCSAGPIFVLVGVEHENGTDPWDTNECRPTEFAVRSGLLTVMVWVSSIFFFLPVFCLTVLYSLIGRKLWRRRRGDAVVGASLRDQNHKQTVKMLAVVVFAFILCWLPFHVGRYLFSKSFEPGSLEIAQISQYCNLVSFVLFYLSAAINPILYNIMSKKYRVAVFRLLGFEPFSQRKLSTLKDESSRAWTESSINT
# Procedure: Transfection LLC-PK1 cells were seeded at 1.5×10^6 cells/10 cm Petri-dishes and grown for 24 h in DMEM high-glucose (4.5 g/L) with 10% foetal bovine serum supplemented with penicillin (10,000 Units/ml) and streptomycin (10,000 ug/ml), and cultured at 37° C., with 5% CO2. The medium was then replaced for another 4-5 hours before CaPO4 calcium phosphate transfection. The DNA solution consists of 40 μg of DNA in a volume of 500 μl in which was added 500 μl of 2 mM Tris-HCl pH 8.0, 0.2 mM EDTA pH 8.0 containing 500 mM CaCl2, to a final volume of 1 ml. Then 1 ml of 50 mM Hepes, 280 mM NaCl, 1.5 mM Na2HPO4 pH to 7.1 (HBSS) was added by alterning 1 drop/2 air bubbles. The transfection mix reaction was incubated at RT for 30 min. After the incubation period, 1 ml of the mix was added to each plate and distributed evenly for incubation. The media was replaced with standard DMEM-high glucose media for another 24 h and cells were collected for membrane preparation.
# Membrane preparation The experiment was carried out 4° C. unless specified. Cells were washed 2 times with PBS and with the homogenization buffer (HB) consisting of 50 mM Tris, 5 mM MgCl2, 2.5 mM EDTA, 30 ug/ml bacitracin at pH 7.3 and were scraped in Eppendorf tubes. Cells were lysed with 2 cycles of freeze/thawing using liquid nitrogen and were then centrifuged at 4° C. for 20 min at 10,000 g to collect the membranes. The membranes were re-suspended in a small volume of HB and aliquoted for storage at −80° C.
# The non-specific binding was determined by excess of competitive ligand at 10^−5M. The reaction was carried out at RT for 1 h.
# CD36 = target: T2, CD36 (Rattus norvegicus, UniProt Q07969); test: Competitive covalent CD36 binding assay using photoactivatable [125I]-Tyr-Bpa-Ala-Hexarelin; settings: for IC50: displacement of [125I]-Tyr-Bpa-Ala-Hexarelin; for drop of CD36 affinity, factor: factor of decrease, reference peptide not stated
# T2 construct: the rat cardiac membranes (200 μg) as source of CD36; from tissue; host or cells: Sprague Dawley rat heart (cardiac membranes)
# T2 sequence (Q07969 whole entry): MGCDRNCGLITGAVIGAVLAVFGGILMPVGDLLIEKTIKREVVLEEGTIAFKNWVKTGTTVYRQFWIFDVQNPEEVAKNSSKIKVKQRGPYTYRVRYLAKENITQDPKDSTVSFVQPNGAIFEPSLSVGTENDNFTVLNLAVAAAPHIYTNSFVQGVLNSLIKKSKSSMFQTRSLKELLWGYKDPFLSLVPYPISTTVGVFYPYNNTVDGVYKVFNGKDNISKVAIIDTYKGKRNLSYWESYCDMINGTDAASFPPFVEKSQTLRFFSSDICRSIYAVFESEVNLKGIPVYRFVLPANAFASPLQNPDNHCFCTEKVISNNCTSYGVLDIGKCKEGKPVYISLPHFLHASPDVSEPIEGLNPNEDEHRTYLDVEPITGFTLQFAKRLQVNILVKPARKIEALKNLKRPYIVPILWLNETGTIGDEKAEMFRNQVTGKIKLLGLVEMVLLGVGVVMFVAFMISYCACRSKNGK
# Procedure: Animal use was in accordance with the Institutional Animal Ethics Committee and the Canadian Council on Animal Care guidelines for the use of experimental animals. Sprague Dawley (275-350 g) rats were anaesthetized with sodium pentobarbital and their hearts were promptly removed in ice-cold saline and the cardiac membranes were prepared according to Harigaya and Schwartz.^lxvi
# Nonspecific binding was defined as binding not displaced by 50 μM peptide. After an incubation period of 60 min at 22° C., membranes were submitted to UV irradiation at 365 nm for 15 min at 4° C. After centrifugation at 12 000 g for 15 min, the pellets were resuspended in 100 μl of sample buffer consisting of 62 mM Tris-HCl, pH 6.8, 2% SDS, 10% glycerol, 15% 2-mercapto-ethanol, and 0.05% bromophenol blue, and boiled for 5 min prior to being subjected to electrophoresis on 7.5% SDS-PAGE. The SDS/PAGE gels were fixed, colored in Coomassie Brilliant Blue R-250, dried, exposed to a storage phosphor intensifying screen (Amersham Biosciences), and analysed by using a Typhoon PhosphorImager (Amersham Biosciences) and ImageQuant 5.0 software to establish competition curves.
# TF-1 cells = test: [3H]thymidine incorporation, IL-1 induced TF-1 cell proliferation; type: cell-based, human; settings: lactam peptide 1 μM; IL-1β 10 or 25 ng/mL
# Procedure: Human TF-1 cells (5×10^4 cells/well) were cultured in complete RPMI medium (GIBCO RPMI Medium 1640, Invitrogen) supplemented with GM-CSF (Granulocyte Macrophage Colony Stimulating Factor, 2 ng/ml; BD Biosource). Cells were deprived of growth factors for 18 h before preincubation with lactam peptide (1 μM) followed by treatment with IL-1β (10 or 25 ng/mL). After 24 h incubation at 37° C., [^3H]thymidine (1 μCi/mL; Amersham) was added and the cells were incubated for another 24 h. Cells were harvested, washed two times with PBS (10 mM Na2HPO4, 2 mM KH2PO4, 137 mM NaCl, 2.7 mM KCl; pH 7.4) and lysed with a 0.1 N NaOH/0.1% Triton X-100 solution. Scintillation cocktail (Fisher Scientific, 8 mL/sample) was added to the lysate, and after 3 h, radioactivity was measured (Beckman Multi-Purpose Scintillation Coulter Counter LS6500). Results were analyzed by one- or two-way ANOVA factoring for concentration or treatments. Postanova comparisons among means were performed using the Tukey-Framer method. Statistical significance was set at p<0.05. Data are presented as mean±SEM.
Compound,IC50 (GHS-R1a receptor),IC50 (CD36; rat cardiac membranes),further results
"C[C@@H](C(=O)N[C@@H](Cc1c[nH]c2ccccc12)C(=O)N[C@H](Cc1ccccc1)C(=O)N[C@@H](CCCCN)C(N)=O)N1CC[C@H](NC(=O)[C@@H](N)Cc2c[nH]cn2)C1=O [Compound 45, His-(S)-Agl-Ala-Trp-D-Phe-Lys-NH2]",28.6 µM,13.4 µM,"drop of CD36 affinity, factor (CD36): 15"
"C[C@H](NC(=O)[C@@H](Cc1c[nH]c2ccccc12)NC(=O)[C@@H](N)Cc1c[nH]cn1)C(=O)N[C@@H](Cc1c[nH]c2ccccc12)C(=O)N[C@H]1CCN([C@@H](CCCCN)C(N)=O)C1=O [Compound 48, His-D-Trp-Ala-Trp-(S)-Agl-Lys-NH2] (H-H[dW]AW-X2)",3.1 µM,21.4 µM,"drop of CD36 affinity, factor (CD36): 15"
"C[C@@H](C(=O)NCN[C@@H](Cc1c[nH]c2ccccc12)C(=O)N[C@H](Cc1ccccc1)C(=O)N[C@@H](CCCCN)C(N)=O)N1C[C@@H](NC(=O)[C@@H](N)Cc2c[nH]cn2)CC1=O [Compound 50, His-(S)-Bgl-Ala-Trp-D-Phe-Lys-NH2]",> 10 µM,> 10 µM,
"NCCCC[C@H](NC(=O)[C@@H](Cc1ccccc1)NC(=O)[C@H](Cc1c[nH]c2ccccc12)N1C[C@@H](NC(=O)[C@@H](Cc2c[nH]c3ccccc23)NC(=O)[C@@H](N)Cc2cnc[nH]2)CC1=O)C(N)=O [Compound 51, His-D-Trp-(S)-Bgl-Trp-D-Phe-Lys-NH2] (H-H[dW][X9][dF]K-NH2)",0.654 µM,> 10 µM,
"CC(C)C[C@@H](NC(=O)[C@@H](CCC(=O)O)NC(=O)[C@H](NC(=O)[C@H](NC(=O)[C@@H](Cc1ccc(O)cc1)N1CC[C@@H](N)C1=O)[C@@H](C)O)C(C)C)C(=O)N[C@H](C)C(N)=O [Compound 54, (R)-Agl-D-Tyr-D-Thr-D-Val-D-Glu-D-Leu-D-Ala-NH2] (X11-[d(aThr)][dV][dE][dL][dA]-NH2)",,,"increase in efficacy compared to 101.10, inhibition of IL-1 induced TF-1 proliferation (TF-1 cells): 2.2 fold"
"CC(C)C[C@@H](NC(=O)[C@@H](CCC(=O)O)NC(=O)[C@@H](C(C)C)N1CC[C@@H](NC(=O)[C@@H](Cc2ccc(O)cc2)NC(=O)[C@H](N)CCCNC(=N)N)C1=O)C(=O)N[C@H](C)C(N)=O [Compound 56, D-Arg-D-Tyr-(R)-Agl-D-Val-D-Glu-D-Leu-D-Ala-NH2]",,,inhibition of IL-1 induced TF-1 proliferation (in words) (TF-1 cells): failed to block proliferation
"C[C@@H](C(=O)N[C@@H](Cc1c[nH]c2ccccc12)C(=O)N[C@H](Cc1ccccc1)C(=O)N[C@@H](CCCCN)C(N)=O)N1CC[C@@H](NC(=O)[C@@H](N)Cc2c[nH]cn2)C1=O [Compound 61, His-(R)-Agl-Ala-Trp-D-Phe-Lys-NH2]",> 10 µM,> 10 µM,
"C[C@H](NC(=O)[C@@H](Cc1c[nH]c2ccccc12)NC(=O)[C@@H](N)Cc1c[nH]cn1)C(=O)N[C@@H]1CCN([C@H](Cc2ccccc2)C(=O)N[C@@H](CCCCN)C(N)=O)C1=O [Compound 63, His-D-Trp-Ala-(R)-Agl-D-Phe-Lys-NH2]",> 10 µM,> 10 µM,
"C[C@H](NC(=O)[C@@H](Cc1c[nH]c2ccccc12)NC(=O)[C@@H](N)Cc1c[nH]cn1)C(=O)N[C@@H]1CC(=O)N([C@H](Cc2ccccc2)C(=O)N[C@@H](CCCCN)C(N)=O)C1 [Compound 69, His-D-Trp-Ala-(R)-Bgl-D-Phe-Lys-NH2] (H-H[dW]A[X5]K-NH2)",> 10 µM,53.5 µM,"reduction of CD36 binding affinity, factor compared with hexarelin (CD36): 10"

# The next lines start with results.
IC50 (GHS-R1a receptor),IC50 (CD36; rat cardiac membranes),Compound,further results
0.0409 µM,14.5 µM,"C[C@H](NC(=O)[C@@H](Cc1c[nH]c2ccccc12)N1CC[C@H](N)C1=O)C(=O)N[C@@H](Cc1c[nH]c2ccccc12)C(=O)N[C@H](Cc1ccccc1)C(=O)N[C@@H](CCCCN)C(N)=O [Compound 44, (S)-Agl-D-Trp-Ala-Trp-D-Phe-Lys-NH2] (X4-AW[dF]K-NH2)","loss of GHS-R1a binding affinity, factor relative to GHRP-6 (GHS-R1a receptor): 10"
2.39 µM,7.45 µM,"NCCCC[C@H](NC(=O)[C@H](Cc1ccccc1)NC(=O)[C@H](Cc1c[nH]c2ccccc12)N1CC[C@H](NC(=O)[C@@H](Cc2c[nH]c3ccccc23)NC(=O)[C@@H](N)Cc2c[nH]cn2)C1=O)C(N)=O [Compound 46, His-D-Trp-(S)-Agl-Trp-D-Phe-Lys-NH2]","loss of GHS-R1a binding affinity, factor relative to GHRP-6 (GHS-R1a receptor): 10^3; affinity for the CD36 receptor (in words) (CD36; rat cardiac membranes): retained similar affinity"
> 10 µM,> 10 µM,"C[C@H](NC(=O)[C@@H](Cc1c[nH]c2ccccc12)NC(=O)[C@@H](N)Cc1c[nH]cn1)C(=O)N[C@H]1CCN([C@H](Cc2ccccc2)C(=O)N[C@@H](CCCCN)C(N)=O)C1=O [Compound 47, His-D-Trp-Ala-(S)-Agl-D-Phe-Lys-NH2]",
0.371 µM,> 10 µM,"C[C@H](NC(=O)[C@@H](Cc1c[nH]c2ccccc12)N1C[C@@H](N)CC1=O)C(=O)N[C@@H](Cc1c[nH]c2ccccc12)C(=O)N[C@H](Cc1ccccc1)C(=O)N[C@@H](CCCCN)C(N)=O [Compound 49, (S)-Bgl-D-Trp-Ala-Trp-D-Phe-Lys-NH2] (X7-AW[dF]K-NH2)",
> 10 µM,> 10 µM,"C[C@H](NC(=O)[C@@H](Cc1c[nH]c2ccccc12)NC(=O)[C@@H](N)Cc1c[nH]cn1)C(=O)N[C@H]1CC(=O)N([C@H](Cc2ccccc2)C(=O)N[C@@H](CCCCN)C(N)=O)C1 [Compound 52, His-D-Trp-Ala-(S)-Bgl-D-Phe-Lys-NH2] (H-H[dW]A[X10]K-NH2)",
24.5 µM,26.5 µM,"C[C@H](NC(=O)[C@@H](Cc1c[nH]c2ccccc12)NC(=O)[C@@H](N)Cc1c[nH]cn1)C(=O)N[C@@H](Cc1c[nH]c2ccccc12)C(=O)N[C@H]1CC(=O)N([C@@H](CCCCN)C(N)=O)C1 [Compound 53, His-D-Trp-Ala-Trp-(S)-Bgl-Lys-NH2] (H-H[dW]AW-X1)","drop of CD36 affinity, factor (CD36): 15"
3.46 µM,8.72 µM,"C[C@H](NC(=O)[C@@H](Cc1c[nH]c2ccccc12)N1CC[C@@H](N)C1=O)C(=O)N[C@@H](Cc1c[nH]c2ccccc12)C(=O)N[C@H](Cc1ccccc1)C(=O)N[C@@H](CCCCN)C(N)=O [Compound 60, (R)-Agl-D-Trp-Ala-Trp-D-Phe-Lys-NH2] (X3-AW[dF]K-NH2)",
2.82 µM,17.3 µM,"NCCCC[C@H](NC(=O)[C@H](Cc1ccccc1)NC(=O)[C@H](Cc1c[nH]c2ccccc12)N1CC[C@@H](NC(=O)[C@@H](Cc2c[nH]c3ccccc23)NC(=O)[C@@H](N)Cc2c[nH]cn2)C1=O)C(N)=O [Compound 62, His-D-Trp-(R)-Agl-Trp-D-Phe-Lys-NH2]",
> 10 µM,38.2 µM,"C[C@H](NC(=O)[C@@H](Cc1c[nH]c2ccccc12)NC(=O)[C@@H](N)Cc1c[nH]cn1)C(=O)N[C@@H](Cc1c[nH]c2ccccc12)C(=O)N[C@@H]1CCN([C@@H](CCCCN)C(N)=O)C1=O [Compound 64, His-D-Trp-Ala-Trp-(R)-Agl-Lys-NH2] (H-H[dW]AW-X6)","reduction of CD36 binding affinity, factor compared with hexarelin (CD36): 10"
> 10 µM,> 10 µM,"C[C@H](NC(=O)[C@@H](Cc1c[nH]c2ccccc12)NC(=O)[C@@H](N)Cc1c[nH]cn1)C(=O)N[C@@H](Cc1c[nH]c2ccccc12)C(=O)N[C@@H]1CC(=O)N([C@@H](CCCCN)C(N)=O)C1 [Compound 70, His-D-Trp-Ala-Trp-(R)-Bgl-Lys-NH2] (H-H[dW]AW-X8)",
